Reference: the supplement of paper PMC10307832

Tests used:
Assay in all cases: relative viability (nuclei count vs DMSO), 5 days (fraction); higher = more cells survive
Wnt-C59 + Trametinib = compound: CC1=NC=CC(=C1)C2=CC=C(C=C2)CC(=O)NC3=CC=C(C=C3)C4=CN=CC=C4 [Wnt-C59] + CC(=O)Nc1cccc(-n2c(=O)n(C3CC3)c(=O)c3c(Nc4ccc(I)cc4F)n(C)c(=O)c(C)c32)c1 [Trametinib] (partner 0.02 µM)
Procedure, shortened: (§1)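 The day after seeding in 1536-well plates, lung cancer cell lines were treated by pin tool with a single drug, or with a fixed anchor-drug dose together with five library-drug doses (not always all listed) in √10 steps. After 5 days, a combined fix-and-stain solution (final 0.05% Triton X-100, 1% formaldehyde, 1 ug/ml Hoechst) was added. Nuclei counted on 4× images gave relative viability as treated counts over vehicle counts, reported as the median of duplicate plates.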

Wnt-C59 + Lapatinib = compound: CC1=NC=CC(=C1)C2=CC=C(C=C2)CC(=O)NC3=CC=C(C=C3)C4=CN=CC=C4 [Wnt-C59] + CS(=O)(=O)CCNCc1ccc(-c2ccc3ncnc(Nc4ccc(OCc5cccc(F)c5)c(Cl)c4)c3c2)o1 [Lapatinib] (partner 2 µM)
Procedure, shortened: as §1

Wnt-C59 + AZD7762 = compound: CC1=NC=CC(=C1)C2=CC=C(C=C2)CC(=O)NC3=CC=C(C=C3)C4=CN=CC=C4 [Wnt-C59] + NC(=O)Nc1cc(-c2cccc(F)c2)sc1C(=O)N[C@H]1CCCNC1 [AZD7762] (partner 0.2 µM)
Procedure, shortened: as §1

Lapatinib + Foretinib = compound: CS(=O)(=O)CCNCc1ccc(-c2ccc3ncnc(Nc4ccc(OCc5cccc(F)c5)c(Cl)c4)c3c2)o1 [Lapatinib] + COc1cc2c(Oc3ccc(NC(=O)C4(C(=O)Nc5ccc(F)cc5)CC4)cc3F)ccnc2cc1OCCCN1CCOCC1 [Foretinib] (partner 0.25 µM)
Procedure, shortened: as §1

Row | Cell Line | relative viability (Wnt-C59 + Trametinib; first compound 0.001 µM) | relative viability (Wnt-C59 + Trametinib; first compound 0.01 µM) | relative viability (Wnt-C59 + Trametinib; first compound 0.03162 µM) | relative viability (Wnt-C59 + Trametinib; first compound 0.1 µM) | relative viability (Wnt-C59 + Lapatinib; first compound 0.001 µM) | relative viability (Wnt-C59 + Lapatinib; first compound 0.01 µM) | relative viability (Wnt-C59 + Lapatinib; first compound 0.03162 µM) | relative viability (Wnt-C59 + Lapatinib; first compound 0.1 µM) | relative viability (Wnt-C59 + AZD7762; first compound 0.001 µM) | relative viability (Wnt-C59 + AZD7762; first compound 0.01 µM) | relative viability (Wnt-C59 + AZD7762; first compound 0.03162 µM) | relative viability (Wnt-C59 + AZD7762; first compound 0.1 µM) | relative viability (Lapatinib + Foretinib; first compound 0.02 µM) | relative viability (Lapatinib + Foretinib; first compound 0.06325 µM) | relative viability (Lapatinib + Foretinib; first compound 0.2 µM) | relative viability (Lapatinib + Foretinib; first compound 0.6325 µM) | relative viability (Lapatinib + Foretinib; first compound 2 µM)
1 | NCI-H1651 | 0.857 | 0.875 | 0.783 | 0.773 | 0.838 | 0.821 | 0.737 | 0.783 | 0.502 | 0.394 | 0.551 | 0.459 | 0.716 | 0.776 | 0.764 | 0.695 | 0.611
2 | NCI-H1703 |  |  |  |  | 1.16 | 1.28 | 1.3 | 1.12 | 0.158 | 0.107 | 0.135 | 0.129 | 0.305 | 0.347 | 0.296 | 0.299 | 0.388
3 | NCI-H522 | 0.786 | 0.741 | 0.829 | 0.752 |  |  |  |  | 0.857 | 0.863 | 0.877 | 0.637 |  |  |  |  | 
4 | HCC-366 | 0.398 | 0.4 | 0.385 | 0.341 | 1.16 | 0.999 | 1.07 | 0.976 | 0.271 | 0.247 | 0.286 | 0.322 |  | 0.86 | 0.887 | 0.912 | 0.89
5 | SK-LU-1 | 0.561 | 0.506 | 0.533 | 0.422 | 0.798 | 0.789 | 0.915 | 0.823 |  |  |  |  | 0.773 | 0.789 | 0.857 | 0.8 | 0.883
6 | NCI-H520 | 0.709 | 0.743 | 0.598 | 0.643 | 0.809 | 0.894 | 0.878 | 0.827 |  |  |  |  | 0.891 | 0.672 | 0.855 | 1.01 | 0.67
7 | NCI-H1437 | 0.51 | 0.562 | 0.481 | 0.579 | 0.851 | 0.8 | 0.89 | 0.828 | 1.14 | 1.16 | 1.18 | 1.08 | 1.23 | 1.33 | 1.32 | 1.2 | 1.12
8 | NCI-H460 | 0.0894 | 0.111 | 0.191 | 0.156 | 0.863 | 0.999 | 1.11 | 0.889 | 0.554 | 0.605 | 0.568 | 0.673 | 0.923 | 1 | 0.998 | 0.966 | 0.69
9 | LK-2 | 0.767 | 0.869 | 0.713 | 0.817 | 0.853 | 0.913 | 0.799 | 0.864 | 0.417 | 0.407 | 0.486 | 0.461 |  |  | 1.39 | 1.42 | 1.07
10 | NCI-H358 | 0.129 | 0.119 | 0.143 | 0.1 | 0.44 | 0.524 | 0.474 | 0.456 | 0.448 | 0.582 | 0.588 | 0.617 | 0.613 | 0.33 | 0.422 | 0.317 | 0.17
11 | NCI-H2085 | 0.599 | 0.577 | 0.58 | 0.614 | 0.8 | 0.726 | 0.771 | 0.819 | 0.901 | 0.865 | 1.06 | 0.957 |  | 0.737 | 0.899 | 0.862 | 0.535
12 | NCI-H2405 | 0.655 | 0.587 | 0.505 | 0.574 | 1.02 |  | 0.968 | 0.95 | 0.759 | 0.75 | 0.759 | 0.8 | 1.04 | 0.911 | 1.05 | 1.02 | 0.92
13 | NCI-H1666 | 0.894 | 0.762 | 0.94 | 0.79 | 0.675 | 0.516 | 0.659 | 0.75 | 0.95 | 0.819 | 0.82 | 0.857 | 0.815 | 0.868 | 0.873 | 0.652 | 0.558
14 | NCI-H322M | 0.581 | 0.484 | 0.412 | 0.504 | 0.638 | 0.585 | 0.594 | 0.538 | 0.575 | 0.577 | 0.511 | 0.536 | 1.04 | 0.809 | 0.944 | 0.911 | 0.611
15 | NCI-H1563 |  |  |  |  | 0.873 | 1.04 | 0.896 | 0.882 |  |  |  |  | 0.861 | 0.881 | 0.953 | 0.831 | 0.857
16 | IA-LM |  |  |  |  | 0.876 | 0.768 | 0.47 | 0.674 |  |  |  |  | 1.08 | 1.13 | 1.36 | 1.03 | 1.16
17 | CAL-12T | 0.327 | 0.378 | 0.367 | 0.381 | 0.614 |  | 0.761 | 0.625 | 0.595 | 0.588 | 0.505 | 0.631 |  | 1.12 | 1.03 | 1.02 | 0.954
18 | NCI-H1395 | 0.931 | 0.995 | 1.04 | 1.02 | 1.03 | 0.972 | 1.1 | 0.991 | 0.39 | 0.383 | 0.426 | 0.389 | 1.03 | 1.04 | 1.01 | 0.929 | 0.917
19 | NCI-H3122 | 0.18 | 0.243 | 0.207 | 0.218 | 0.967 | 1.07 | 0.993 | 1.04 | 1.03 | 0.949 | 1.05 | 0.973 | 0.944 | 0.901 | 0.96 | 0.872 | 0.928
20 | HARA | 0.785 | 0.691 | 0.933 | 0.879 | 0.649 | 0.746 | 0.876 | 0.751 | 0.408 | 0.348 | 0.38 | 1.61 |  | 0.593 | 0.843 | 0.631 | 0.401
21 | EBC-1 |  |  |  |  | 0.203 | 0.214 | 0.18 | 0.208 |  |  |  |  | 0.113 | 0.0941 | 0.0867 | 0.108 | 0.0963
